Like-named read-outs stand apart in the source and are kept apart here. Values belong to the compound of their own block, whether it stands above or below them.
Columns and labels:
[1] = test system: RAW 264.7 cells; experiment: Uptake of emulsion containing DiO and Rhodamine B by RAW 264.7 cells (CLSM); assay type: cell-based; conditions: 3 hours of incubation, FIG. 12
Description: To understand better the route of drug delivery, RAW 264.7 cells are added the prepared emulsion containing DiO and Rhodamine B and then cultured for 3 hours. The unabsorbed emulsion is washed with PBS, and then the cells are fixed with formalin, stained, and observed with the CLSM. In addition, the rats are oral administrated with the enteric-coated gelatin capsules that contained the pharmaceutical composition of the present disclosure (the dose of DiO and Rhodamine B is 12 mg/kg, respectively). The animals are sacrificed 6 hours after oral administration, the MLNs are retrieved from euthanized rats, and the tissues are fixed in formalin for 4 hours at room temperature. Then the tissue was cut to size and embedded in OCT gel for frozen section and subsequent staining. The sections are finally examined by CLSM.

[2] = Pharmacokinetics in rats after I.V. injection or oral administration, plasma drug concentration quantified by HPLC
Description: (§1) The pharmacokinetics of the pharmaceutical composition of the present disclosure is analyzed in this experiment. There are two groups, the rats are oral administered of the pharmaceutical composition of the present disclosure with 12 mg/kg of paclitaxel and 12 mg/kg of gemcitabine as the oral group, and the rats are tail intravenous injected at a dose of 12 mg/kg of paclitaxel and 12 mg/kg of gemcitabine as the I.V. group. After administration, blood of rat is collected from the tail vein at 0.5, 1, 2, 3, 4, 6, 8, 10, 12, 24, 48 hours, and plasma of rat is obtained after centrifugation. After treatment, the drug concentration is quantified by HPLC.
(§2) For quantifying gemcitabine (hereafter GEM), tetrahydrouridine (10 mM, 10 μL) is added, and 2 mL of an organic mixture (15% isopropanol in ethyl acetate) is added into 100 μL of the plasma. After mixing, the supernatant is centrifuged, dried, and then dissolved in the mobile phase to perform HPLC. Mobile phase is 0.1 M ammonium acetate:acetonitrile=98:2. For quantifying paclitaxel (hereafter PTX), 400 μL of acetonitrile is added into 100μL of plasma. After mixing well, the sample is centrifuged to remove the supernatant. Then 100 μL of ZnSO4 (10% w/v aqueous solution) is added. After mixing well, the sample is centrifuged to remove the supernatant. Then 1 mL of ethyl acetate is added. After mixing well, the sample is centrifuged to remove the supernatant, and then dried. Then the sample is dissolved in methanol to perform HPLC. Mobile phase is H2O:acetonitrile=90:10.

[3] = Lewis, rat, in vivo
Description: as §1, §2

[4] = in vivo; conditions: Lewis, rat, 12 mg/kg
Description: as §1, §2

[5] = In vivo transport route by immunofluorescence staining (small intestine, MLNs, tumor; CLSM); parameters: species or system Lewis rats; conditions: oral capsule, DiO and Rhodamine B 12 mg/kg each, 6 hours after administration, FIG. 11
From the text: In addition to the comprehensive in vitro characterization of the pharmaceutical composition of the present disclosure, determination of the biodistribution of these lipid oil drops following in vivo administration is crucial because they act at the site of accumulation. To trace the pharmaceutical composition of the present disclosure in rats, DiO and Rhodamine B are used as fluorescent model drug for hydrophobic small molecule drug and hydrophilic small molecule drug, respectively.
The animal studies involved Lewis rats with masses of approximately 250 g and are performed in compliance with the “Guide for the Care and Use of Laboratory Animals”, which was prepared by the Institute of Laboratory Animal Resources, National Research Council, and published by the National Academy Press in 1996. The Institutional Animal Care and Use Committee of National Tsing Hua University approved all studies. To prepare the enteric-coated gelatin capsules for use in this experiment, hard gelatin capsules (size 9; Torpac Inc., Fairfield, N.J., U.S.A.) are manually filled with a powdered mixture of Rhodamine B (1 mg), DiO (1 mg), capric acid (18 mg), citric acid (6 mg), and sodium bicarbonate (5 mg), as per the manufacturer's instructions. […]

[6] = Ex vivo IVIS biodistribution of fluorescent model drugs in major organs; parameters: species or system rats; conditions: FIG. 14
Description: Further, ex vivo imaging of the distributions of different drugs in the major organs that are isolated from the test rats was conducted using an in vivo imaging system (IVIS). The rats are oral administrated a dose of 12 mg/kg of DiO and 12 mg/kg of Rhodamine B as an experiment group, and tail intravenous injected the same dose of DiO and Rhodamine B as an I.V. control group. In addition, the rats are intraperitoneally injected cycloheximide 1 hour before oral administration to block lymphatic absorption as a control group. The animals are sacrificed 6 hours after the feeding and 1 hour after the tail intravenous injection. At the time of maximum accumulation, the rats are sacrificed to remove the main organs (heart, lung, liver, spleen, pancreas and kidney) and the distribution of the fluorescent dye is observed by IVIS.

[7] = Lewis, rat, plasma, iv, 12 mg/kg
[8] = Lewis, rat, plasma, po, 12 mg/kg
[9] = Oral group, 12 mg/kg each, rat plasma

Structure (SMILES): CCCCCCCCCCCCCCCCCCN1/C(=C\C=C\c2oc3ccccc3[n+]2CCCCCCCCCCCCCCCCCC)Oc2ccccc21.[O-][Cl+3]([O-])([O-])[O-] [DiO]
uptake into cells (colocalization of DiO and DAPI fluorescence) [1]: can be uptake into RAW 264.7 cells

AUC [2, 7]: 41100 ng·h/mL
Cmax [2, 7]: 16700 ± 4380 ng/mL
MRT [2, 7]: 3.28 h
clearance [2, 7]: 4 mL/min/kg
half-life [2, 7]: 2.36 h
bioavailability ([2]; Lewis, rat, plasma, oral, 12 mg/kg): 56.8%
AUC [2, 8]: 23400 ng·h/mL
Cmax [2, 8]: 3620 ± 1380 ng/mL
MRT [2, 8]: 5.61 h
half-life [2, 8]: 6.13 h
CL [2, 9]: 7.17 mL/min/kg
Tmaxz [2, 9]: 4.00 h
time at which the concentration reaches the highest peak, post-administration ([2]; Oral group, FIG. 15B): 4 h
time post-administration after which the concentration cannot be detected ([3]; iv): 6 h
AUMC ([3]; iv, 12 mg/kg): 135.11 μg h^2/mL
time post-administration within which the concentration still can be detected ([3]; po): ≤ 12 h
AUMC ([3]; po, 12 mg/kg): 131.19 μg h^2/mL
Structure (SMILES): Nc1ccn([C@@H]2O[C@H](CO)[C@@H](O)C2(F)F)c(=O)n1 [GEM, gemcitabine]

time post-administration after which the concentration cannot be detected ([3]; iv): 6 h
AUMC ([3]; iv, 12 mg/kg): 39.21 μg h^2/mL
time at which the concentration reaches the highest peak, post-administration ([3]; po): 6 h
time post-administration within which the concentration still can be detected ([3]; po): ≤ 12 h
AUMC ([3]; po, 12 mg/kg): 52.32 μg h^2/mL
CL ([3]; po, 12 mg/kg): 23 mL/min/kg
Tmaxz ([3]; po, 12 mg/kg): 8.00 h
bioavailability [4]: 59.2%
AUC ([4]; iv): 23600 ng·h/mL
Cmax ([4]; iv): 20000 ± 5010 ng/mL
MRT ([4]; iv): 1.66 h
clearance ([4]; iv): 7 mL/min/kg
half-life ([4]; iv): 10.2 h
AUC ([4]; po): 7250 ng·h/mL
Cmax ([4]; po): 1010 ± 970 ng/mL
MRT ([4]; po): 7.22 h
half-life ([4]; po): 14.4 h
Structure (SMILES): CC(=O)O[C@H]1C(=O)[C@@]2(C)[C@H]([C@H](OC(=O)c3ccccc3)[C@]3(O)C[C@H](OC(=O)[C@H](O)[C@@H](NC(=O)c4ccccc4)c4ccccc4)C(C)=C1C3(C)C)[C@]1(OC(C)=O)CO[C@@H]1C[C@@H]2O [PTX, paclitaxel]

Structure (SMILES): CCN(CC)c1ccc2c(-c3ccccc3C(=O)O)c3ccc(=[N+](CC)CC)cc-3oc2c1.[Cl-] [Rhodamine B]
location of fluorescent signals (immunofluorescence staining) [5]: located on the lateral surfaces of the villi, Peyer's patches and tumor
organ accumulation (ex vivo IVIS) ([6]; I.V. control group, tail intravenous injection 12 mg/kg each, 1 hour): accumulated in liver, pancreas and kidneys
organ accumulation (ex vivo IVIS) ([6]; control group, cycloheximide intraperitoneally 1 hour before oral administration, 6 hours): accumulated in liver, pancreas and the lateral surfaces of intestinal tract
organ accumulation (ex vivo IVIS) ([6]; experiment group, oral 12 mg/kg each, 6 hours): accumulated in liver, pancreas and the lateral surfaces of intestinal tract

— patent US20200146973A1, “Pharmaceutical Composition for Oral Delivery of Hydrophobic Small Molecule Drug and Hydrophilic Small Molecule Drug Concurrently” (National Tsing Hua University, priority 2016, published 2020)
